Test results: patent US11234997B2, “Antibacterial activity of galactooligosaccharide and xylitol in dermatological treatments” (ROTTAPHARM SPA, priority 2017, dated 2022)

Legend:
[1] = tested on: S. aureus 815 (clinical strain); test: Biofilm phase reduction (safranin staining, OD492); type: cell-based, Staphylococcus aureus; conditions: GOS 0%; for percentage of biofilm reduction (anti-adhesive): 3 h; for percentage of biofilm reduction (anti-biofilm): 24 h
Description: (§1) Galactooligosaccharide and xylitol were evaluated alone and in combination at different concentrations (concentrations: 0, 1, 2.5 and 5%) to affect bacterial planktonic production and biofilm-forming ability of standardized broth cultures of S. aureus 815 (clinical strain) and S. epidermidis 317 (clinical strain) was assessed. Bacterial suspensions grown in TSB supplemented with 0.5% (v/v) glucose at logarithmic phase, were incubated on 96 flat-bottomed microliter plates in the presence of galactooligosaccharide or xylitol or their combination at different concentrations or TSB (control). After incubation for 3 h and 24 h at 37° C., each well was washed twice with sterile PBS, air-dried, stained for 1 min with 0.1% safranin, and washed with PBS. The stained biofilm were re-suspended in 200 μl ethanol (95% v/v), and OD492 was measured by spectrophotometry using an ELISA reader. Table 4 outlines the percentage of biofilm reduction (anti-adhesive (3 h) and anti-biofilm (24 h)) of S. aureus 815 and S. epidermidis 317 in the presence of galactooligosaccharide, xylitol and their combinations at different concentrations.

[2] = tested on: S. aureus 815 (clinical strain); test: Planktonic phase growth reduction (OD600); type: cell-based, Staphylococcus aureus; conditions: GOS 0%
Description: (§2) Galactooligosaccharide and xylitol were evaluated alone and in combination at different concentrations (concentrations: 0, 1, 2.5 and 5%) to affect bacterial planktonic production and biofilm-forming ability of standardized broth cultures of S. aureus 815 (clinical strain) and S. epidermidis 317 (clinical strain) was assessed. Different concentrations of galactooligosaccharide, xylitol and their combination, were added to a 96 well plate to evaluate their in vitro effect on S. aureus and S. epidermidis bacterial planktonic population. The overnight bacterial inocula were prepared in Tryptic soy broth (TSB), refreshed in the same medium and adjusted to OD600=0.12 (approximately 5×10^6 CFU/ml) for the experiments. For the controls, galactooligosaccharide and xylitol were also assayed alone. The plates were incubated for t=3, and 6 h at 37° C. in aerobic conditions. Each determination was performed in duplicate for three independent experiments and the biomass was evaluated using a safranin staining method. After each time of incubation, the reduction of the OD600 was evaluated in respect to the controls and the colony forming units (CFU)/ml at 0 and 24 h were detected. Table 3 outlines the percentage reduction of S. aureus 815 and S. epidermidis 317 growth in planktonic phase in the presence of galactooligosaccharide, xylitol and their combinations at different concentrations (OD600) after 3 and 6 h.

[3] = tested on: S. epidermidis 317 (clinical strain); test: Biofilm phase reduction (safranin staining, OD492); type: cell-based, Staphylococcus epidermidis; conditions: GOS 0%; for percentage of biofilm reduction (anti-adhesive): 3 h; for percentage of biofilm reduction (anti-biofilm): 24 h
Description: as §1

[4] = tested on: S. epidermidis 317 (clinical strain); test: Planktonic phase growth reduction (OD600); type: cell-based, Staphylococcus epidermidis; conditions: GOS 0%
Description: as §2

SMILES: OC[C@@H](O)[C@H](O)[C@@H](O)CO [Xylitol, xylitol]
- percentage of biofilm reduction (anti-adhesive) ([1]; xylitol 1%): 21.61%
- percentage of biofilm reduction (anti-biofilm) ([1]; xylitol 1%): 51.68%
- percentage of biofilm reduction (anti-adhesive) ([1]; xylitol 2.5%): 28.81%
- percentage of biofilm reduction (anti-biofilm) ([1]; xylitol 2.5%): 47.8%
- percentage of biofilm reduction (anti-adhesive) ([1]; xylitol 5%): 36.98%
- percentage of biofilm reduction (anti-biofilm) ([1]; xylitol 5%): 56.02%
- percentage reduction of growth in planktonic phase (OD600) ([2]; xylitol 1%, 3 h): 14.38%
- percentage reduction of growth in planktonic phase (OD600) ([2]; xylitol 1%, 6 h): 15.86%
- percentage reduction of growth in planktonic phase (OD600) ([2]; xylitol 2.5%, 3 h): 23.93%
- percentage reduction of growth in planktonic phase (OD600) ([2]; xylitol 2.5%, 6 h): 27.80%
- percentage reduction of growth in planktonic phase (OD600) ([2]; xylitol 5%, 3 h): 26.70%
- percentage reduction of growth in planktonic phase (OD600) ([2]; xylitol 5%, 6 h): 35.13%
- percentage of biofilm reduction (anti-adhesive) ([3]; xylitol 1%): 1.00%
- percentage of biofilm reduction (anti-biofilm) ([3]; xylitol 1%): 22.81%
- percentage of biofilm reduction (anti-adhesive) ([3]; xylitol 2.5%): 10.64%
- percentage of biofilm reduction (anti-biofilm) ([3]; xylitol 2.5%): 22.18%
- percentage of biofilm reduction (anti-adhesive) ([3]; xylitol 5%): 14.16%
- percentage of biofilm reduction (anti-biofilm) ([3]; xylitol 5%): 5.67%
- percentage reduction of growth in planktonic phase (OD600) ([4]; xylitol 1%, 3 h): 13.40%
- percentage reduction of growth in planktonic phase (OD600) ([4]; xylitol 1%, 6 h): 22.11%
- percentage reduction of growth in planktonic phase (OD600) ([4]; xylitol 2.5%, 3 h): 19.36%
- percentage reduction of growth in planktonic phase (OD600) ([4]; xylitol 2.5%, 6 h): 28.57%
- percentage reduction of growth in planktonic phase (OD600) ([4]; xylitol 5%, 3 h): 27.13%
- percentage reduction of growth in planktonic phase (OD600) ([4]; xylitol 5%, 6 h): 29.99%
